SMILES | melting point [°C]
CC1(C)C(=O)ON(Cc2cc(Cl)ccc2Cl)C1=O | 78 to 80
CCCNC(=O)C(C)Cc1ccc2cccc(Cc3ccc(C(=O)NS(=O)(=O)c4ccccc4)cc3OC)c2c1 (centres undefined) | 214 to 218
O=C(CN1CCC(OCc2ccccc2)CC1)Nc1ccc2c(c1)OCC(=O)N2 | 238 to 240
CCCCCCCCCCCCCCOc1ccc2c(C)cc(=O)oc2c1 | 61 to 62
CC(C)(C)c1cc(OCCCCCCC(=O)O)cc(C(C)(C)C)c1 | 88 to 90
CCCCCSC1=C(SCCCCC)SC(=C2SC3=C(CN(S(=O)(=O)c4ccc(C)cc4)C3)S2)S1 | 136 to 137
CCOC(=O)Nc1ccc(OC)cc1[N+](=O)[O-] | 56 to 57
COCc1ccc(N2CCN(Cc3c[nH]c4ncccc34)CC2)cc1 | 162 to 163
O=c1c2cc(Cl)cc(Br)c2ncn1CCCN1CC=C(c2c[nH]c3ccccc23)CC1 | 192
O=C(O)CN(CCc1ccccc1)C(=O)[C@@H]1C[C@@H](S)CN1S(=O)(=O)c1ccc2ccccc2c1 | 198 to 200
CC(=NO)C1=CCC2C3CCC4CC=CCC4(C)C3C(=O)CC12C (centres undefined) | 168 to 182
c1csc(NCCc2c[nH]cn2)n1 | 198 to 199
Cc1cn(-c2cccc(C(=O)CC(=O)Nc3cc(C#Cc4ccc(F)cc4)ccc3NC(=O)OC(C)(C)C)c2)cn1 | 166
Cc1ccc(S(=O)(=O)N2CCCC2c2ccc(F)cc2)cc1 (racemic) | 128
O=C(c1ccc([N+](=O)[O-])cc1)c1cc2c(c(Cl)c1Cl)OC(C(=O)O)C2 (centres undefined) | 243 to 245
O=C1CCN(C(=O)C(Cc2ccccc2)NC(=O)c2cc3cc(Cl)ccc3[nH]2)CC1 (centres undefined) | 258 to 261
O=C(C=CC1CCCCC1)NCCc1cccc(OCc2ccccc2)c1 | 98 to 100
COc1ccc(S(=O)(=O)C2(CCCCCCCCCC#Cc3ccc(Cl)cc3)SC(=O)NC2=O)cc1 (centres undefined) | 114 to 121
O=C(O)c1cscc1Br | 157 to 158
CN1CCN(c2cccc3c2C[C@H](NS(C)(=O)=O)CC3)CC1 | 135 to 137
O=[N+]([O-])c1ccnc(-c2cc(C(F)(F)F)ccc2F)c1 | 58.1

SMILES | melting point [°C]
CCC(CC)Nc1c([N+](=O)[O-])cc(CC(=O)O)c(C(C)C)c1[N+](=O)[O-] | 116 to 118
CC(C)(O)CC(=O)N[C@H]1CC[C@H](CCN2CCN(c3nccc4c3OCC4)CC2)CC1 | 139
CC(CNC(=O)Nc1ccc([N+](=O)[O-])cc1O)OCc1ccccc1 (centres undefined) | 64.6 to 65.2
O=C1N(Cc2ccc(C(F)(F)F)o2)c2ccccc2C12COc1cc3c(cc12)CCO3 (centres undefined) | 64 to 65
CCOCc1nc(N)c(N)c(=O)[nH]1 | 173 to 175
N=C(N)c1ccc2c(c1)N(CC(=O)c1ccccc1-c1ccccc1)C(=O)CN2 | 148 to 150
CS(=O)(=O)OCc1cc(-c2ccc(OCc3ccccc3)cc2)no1 | 110 to 112
CC(=O)NCc1ccc(-c2csc(NC(C)=O)n2)s1 | 251
CCCCC(=N)NC(=O)NC1CCCCC1 | 146 to 148
O=C(O)c1cccc(Oc2ccc(C(F)(F)F)c(Cl)c2)c1 | 90 to 91
Cc1c(NC(=O)c2ccc(-c3ccc(C(F)(F)F)cc3)cc2F)ccc2cc(CN3CCCC3)cnc12 | 202 to 203
CCCOc1n[nH]c(=O)n1C | 74
c1ccc(C2CCN(CC34CC(c5ccccc53)c3ccccc34)CC2)cc1 | > 300
COC(=O)[C@H](O)[C@@H](NS(=O)(=O)c1c2ccccc2cc2ccccc12)c1ccccc1 | 98 to 102
CCCCN(CCCC)c1ccc(C=CC2=C(C#N)C(=C(C#N)C#N)OC2(C)C)c(O[Si](c2ccccc2)(c2ccccc2)C(C)(C)C)c1 | 220 to 221
COc1ccc(C2(O)CCN(C(=O)OCc3ccccc3)CC2)cc1 | 98
CC(=O)NC[C@H]1CN(c2ccc(N3CCC(=C(C#N)c4cccs4)CC3)c(F)c2)C(=O)O1 | 260 to 263
CC(=O)Nc1nc(CCc2ccc(NC(N)=S)cc2)c(Cc2ccc(S(C)(=O)=O)cc2)s1 | 102 to 103
COC(=O)c1cc(CC(C)NCC(O)c2ccc(O)c(CO)c2)ccc1OC (centres undefined) | 69 to 73
O=C(O)[C@H](CCc1ccc(F)cc1F)NC(=O)C(F)(F)F | 62 to 83.5
Cc1ccc(S(=O)(=O)NC(C)(C)C(C)C)cc1 | 80 to 89

SMILES | melting point [°C]
N#Cc1ccc(C=C2CCCC2)s1 | 98 to 100
O=C1CCC2(N1)C1C=CC(C1)C2c1ccccc1 (centres undefined) | 152 to 155
CN(C)Cc1ccc(CSCCNC(=C[N+](=O)[O-])NCCCN(C)CCN(Cc2ccc(F)cc2)c2ccccn2)o1 | 63
O=C1CCC(N2C(=O)c3ccc(CNC(=O)c4ccc(Cl)cc4)cc3C2=O)C(=O)N1 (centres undefined) | 178 to 180
COc1ccc(CCNC(C)(C)CO)cc1 | 114 to 115
COc1ccc(C2=NN(c3ccc(CC(=O)O)cc3)C(=O)[C@H]3CC=CC[C@@H]23)cc1OC (relative stereo) | 162
CCCCCCCCOc1ccc2c(c1OCCCCCCCC)C(=O)c1ccccc1C2=O | 91 to 94
O=C(NCCCCCC1CCSS1)c1cccnc1 (centres undefined) | 41 to 44
CSC(=O)C(C#N)C(=O)Nc1ccc(C(F)(F)F)cc1 (centres undefined) | 196 to 198
O=C(O)c1csnc1-c1cc(S)cc(Cl)c1 | 150 to 160
CC(O)=C(C#N)C(=O)Nc1ccc(Cl)cc1 | 209 to 211
CCCc1c(-c2ccc(C(=O)OC)cc2)oc2cc(S(=O)(=O)Cl)ccc2c1=O | 128
CC(=O)Nc1ccccc1OCCO | 89 to 91
Fc1ccc(CN2CC=C(/C=C/c3ccccc3)CC2)cc1 | 115 to 117
COc1ccc2[nH]c3c([N+](=O)[O-])ccc(Cl)c3c(=O)c2c1Cl | 251 to 253
CS(=O)(=O)c1ccc(C(=O)Nc2ccc(-n3nc(C4CC4)cc3C3CC3)cc2)cc1 | 171 to 176
C#CCNC(=O)/C=C\SC(=O)c1ccccc1 | 131 to 134
COc1ccc2c(c1)C1(CCN(CCCC(=O)c3ccc(F)cc3)C1)CC2O (centres undefined) | 163 to 165
CC1CCCC(C)N1S(=O)(=O)N[C@@H](Cc1ccc(NC(=O)c2c(Cl)cncc2Cl)cc1)C(=O)O (some centres undefined) | 162

More lines, now with the values ahead:

melting point [°C] | SMILES
150 to 153 | CC1CCc2c(-c3ccccc3)nc(=O)n(C(C)C)c2C1 (centres undefined)
126 to 127 | COC(=O)c1cc(-c2nc(COc3ccc(CO)cc3OC)c(C)o2)ccc1OS(C)(=O)=O
145 to 146 | Cc1ccc(-c2nc(Cc3cc4cc(CCl)ccc4o3)c(C)o2)cc1
126 to 128 | COc1cc2c(c3c1OC(C)(C)C3)C(c1ccncc1Cl)=NC(C)(C)C2
208 to 210 | COc1cc(Nc2c(C#N)cnc3ccsc23)c(Cl)cc1Cl
181 to 184 | Cc1nc(Nc2ccccc2)nc(C#N)c1C
206 to 208 | CCc1nc2c(N)nc3ccccc3c2n1CCCC(C)=O
62 to 72 | CC(=O)NC1Cc2ccc(CCN3CCN(c4nsc5ccccc45)CC3)cc2C1(C)C (centres undefined)
92 to 93 | COCCCn1nnnc1-c1cc(Br)c(OCc2ccccc2)cc1OCc1ccccc1
200 to 202 | CCn1c2ccccc2n2c(=O)c(C(=O)N3CCOCC3)cnc12
202 to 204 | Cc1oc(-c2ccc(Cl)cc2)cc1C(=O)NCc1ccc2cc(O)ccc2c1
81.8 to 82.6 | COc1cc(C=CC(=O)c2cccc(N(C)C)c2)cc(OC)c1
251 to 253 | Cc1cc(Nc2cc(C(C)(C)C)c(O)c(C(C)(C)C)c2)n2nccc2n1
131 to 135 | CCn1cnc2c(Nc3ccc(NC(=O)OC)cc3)nc(N[C@H]3CC[C@H](O)CC3)nc21
191 to 194 | COCc1nc2cccc(C(=O)OC)c2n1Cc1ccc(-c2ccccc2-c2nnn[nH]2)cc1
275 to 277 | c1ccc(CN(Cc2ccccc2)c2cccc3c2ncc2nc4n(c23)CCC4)cc1
74 to 75 | COC(=O)CCc1oc(C)nc1-c1ccc(Cl)cc1
265 to 268 | Nc1c(-c2cc(Cl)ccc2O)c2ccccc2[nH]c1=O
192 to 194 | Cc1cc(N)nc(-c2ccncc2)n1

melting point [°C] | SMILES
189 to 191 | Cc1ccc(C(=O)Nc2nc3ccccc3c(=O)n2C)cc1
128 to 129 | Cc1nccn1-c1nc(-c2ccc(Cl)cc2)c(CCCO)o1
176 to 178 | COc1nc(C)nc(NC(=O)NS(=O)(=O)c2cccnc2Oc2ccccc2)n1
193 to 194 | Cc1cc(C2CCN(S(=O)(=O)C3(C(=O)NO)CCOCC3)CC2)ccc1-c1cccc(OCCO)n1
174 to 175 | CN(O)C(=O)c1cccc2c1[nH]c1c3cc(Br)ccc3oc21
158 to 160 | COc1ccc(-c2cc3cc(OC)cc(CBr)c3o2)cc1
114 to 120 | Cc1cc(F)ccc1-c1nc(N[C@@H](C)CO)nc2c1ccc(=O)n2-c1ccccc1F
244 to 246 | N#Cc1cnc2c(c1Nc1ccc(Cl)cc1Br)C=C1N=CN=C1C2
227 | COc1ccccc1C1(O[Si](C)(C)C)C(=O)Nc2cc(C)c(Cl)cc21 (centres undefined)
228 to 229 | O=C(Nc1cnc2ccc(Cl)cc2c1-c1ccccc1)Nc1c(F)cccc1F
83.4 to 88.7 | Cc1cc(I)ccc1Nc1c(-c2nnn[nH]2)ccc(F)c1F
197 to 198 | Cc1cccc(C)c1-c1cc2cnc(N)nc2n(C)c1=N
234 to 240 | Cc1oc2cc(NC(=O)C(=O)O)ccc2c(=O)c1C
132 to 135 | CN(CCO)c1ccnc(CSc2nc3ccccc3[nH]2)c1Cl
229 to 230 | Cc1cc(-c2nc3cccnn3c2-c2ccnc(NC(=O)c3cccc4cccnc34)c2)ccc1F
118 to 120 | C=C(C)Cn1c(C)c(C)c2cnnc(OCc3ccc(F)cc3)c21
105 to 106 | CC(C)c1c(Sc2cccc(Cl)c2)nc(CO)n1C
143 to 149 | CN(CC(=O)Nc1cccc(-c2cc(-c3ccccc3O)nc(NC(=O)c3cccs3)c2C#N)c1)C(=O)OC(C)(C)C
188 to 189 | Cn1c(CNCC(C)(C)O)cc2cc(NC(=O)c3ccc(OCC4CC4)cc3)ccc21
